# Measured values reported in the SangsterLogP compilation.
# Assay: not given
row,SMILES,logP
1,CCCOC(=O)Nc1ccc(OCC)c(OCC)c1,2.97
2,CCOc1ccc(NC(=O)OCc2ccccc2)cc1OCC,3.32
3,CCCCOC(=O)Nc1ccc(OCC)c(OCC)c1,3.35
4,COC(=O)Nc1cccc(I)c1,2.88
5,CCOc1ccc(NC(=O)OC)cc1OCC,2.2
6,CCOc1ccc(NC(=O)OCC(C)C)cc1OCC,3.33
7,CCOc1ccc(NC(=O)OCCOC)cc1OCC,2.22
8,COC(=O)Nc1cccc(Br)c1,2.71
9,CCOc1cccc(NC(=O)OC)c1,2.28
10,CCOc1ccc(NC(=O)OC(CBr)CBr)cc1OCC,3.39
11,COC(=O)Nc1ccccc1Cl,2.19
12,CCOc1ccc(NC(=O)OC2CCCC2)cc1OCC,3.41
13,COC(=O)Nc1ccccc1I,2.36
14,CCOC(=O)Nc1ccc(OCC)c(OCC)c1,2.58
15,COC(=O)Nc1cccc(Cl)c1,2.59
16,C=CCOC(=O)Nc1ccc(OCC)c(OCC)c1,2.74

# Continued, values first:
row,logP,SMILES
1,1.98,COC(=O)Nc1ccc([N+](=O)[O-])cc1
2,2.02,COC(=O)Nc1ccc(F)cc1
3,2.52,COC(=O)Nc1ccc(Cl)cc1
4,1.77,COC(=O)Nc1ccc(OC)cc1
5,1.67,COC(=O)Nc1ccc(C#N)cc1
6,2.17,COC(=O)Nc1cccc(F)c1

# Assay: method code SF-AS, from DOI: 10.1016/s0021-9673(00)94589-8, PMID: 3356765
row,SMILES,logP
1,COC(=O)Nc1cccc(C(F)(F)F)c1,2.74
2,COC(=O)Nc1cccc(C(C)=O)c1,1.63
3,CCOc1ccc(NC(=O)OC(C)C)cc1OCC,2.82
4,CCOc1ccc(NC(=O)OCCC#N)cc1OCC,2.13
5,CCOc1ccccc1NC(=O)OC,2.4
6,COC(=O)Nc1ccccc1C(F)(F)F,2.09
7,C#CCOC(=O)Nc1ccc(OCC)c(OCC)c1,2.68
8,COC(=O)Nc1ccccc1Br,2.25
9,COC(=O)Nc1ccccc1[N+](=O)[O-],2.07
10,COC(=O)Nc1cccc(C#N)c1,1.77
11,COC(=O)Nc1cccc([N+](=O)[O-])c1,1.95
12,COC(=O)Nc1ccccc1OC,1.84
13,COC(=O)Nc1ccccc1F,1.66

# The remaining lines, values ahead:
row,logP,SMILES
1,2.27,COC(=O)Nc1ccc(C)cc1
2,2.72,CCc1ccc(NC(=O)OC)cc1
3,1.92,COC(=O)Nc1cccc(OC)c1
4,2.22,COC(=O)Nc1cccc(C)c1
5,2.72,CCc1cccc(NC(=O)OC)c1
6,3.68,CCCCc1ccc(NC(=O)OC)cc1
7,2.11,CCOc1ccc(NC(=O)OC)cc1
8,1.69,COC(=O)Nc1ccccc1C
